Test systems include OVCAR-5; OVCAR-8; RPMI-8226; SK-OV-3; UACC-257; SK-MEL-2; A549; HL-60; ACHN; SW-620; EKVX; HT-29; SNB-75; HOP-62; SN12C; SK-MEL-28; RXF 393.
What all share (experiment): inhibition of tumour cell growth, NCI panel, 48 h

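In this assay, cells in 96-well plates receive the compound at five concentrations for 48 hours. Endpoints are linearly interpolated between the surrounding concentrations. GI50: concentration for 50% inhibition of growth.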 Active and inactive are the calls of the source. Rule as the data show it: active = GI50 up to about 1.1 µM and inactive = higher.

As to `Cc1cccc(C2=C/C(=C(\SS/C(C(=O)c3ccc(OCC(=O)O)c(Cl)c3Cl)=C3\C=C(c4cccc(C)c4)SS3)C(=O)c3ccc(OCC(=O)O)c(Cl)c3Cl)SS2)c1`, the GI50 was 30.4 µM (inactive) with OVCAR-5; 11.7 µM (inactive) with OVCAR-8; 16.9 µM (inactive) with RPMI-8226; 36.6 µM (inactive) with SK-OV-3; 34.4 µM (inactive) in the assay on UACC-257; 19.1 µM (inactive) with SK-MEL-2. For the same molecule, the GI50 in the assay with A549 was 28.8 µM (inactive); with HL-60 it was 1.85 µM (inactive); in the assay on ACHN it was 12.4 µM (inactive); with SW-620, 18.1 µM (inactive); in the assay with EKVX, 56.5 µM (inactive); in the assay with HT-29, 27.7 µM (inactive). Further, the GI50 in the assay with SNB-75 is 18.7 µM (inactive); in the assay on HOP-62 it was 47.1 µM (inactive); in the assay on SN12C it was 14.8 µM (inactive); with SK-MEL-28 it was 18.6 µM (inactive).
`N#CC(C#N)=C1NC(=O)CC(=O)N1`: the GI50 in the assay with OVCAR-5, in the assay with OVCAR-8, in the assay on RPMI-8226, in the assay with SK-OV-3, with UACC-257 and in the assay with A549 was > 100 µM (inactive) each time. Further, the GI50 in the assay with HL-60, in the assay with RXF 393, with SW-620, with EKVX, in the assay on HT-29 and with SNB-75 was > 100 µM (inactive) throughout. Moreover, the GI50 in the assay with HOP-62 and in the assay with SN12C was > 100 µM (inactive) each time.
On to `CSC(=N)N1N=C2c3ccccc3CC[C@@H]2[C@@H]1c1ccccc1`, for which the GI50 in the assay with OVCAR-5 is 17.7 µM (inactive); in the assay on OVCAR-8, 15 µM (inactive); in the assay on RPMI-8226, 12.1 µM (inactive); with SK-OV-3 it was 18.1 µM (inactive); with UACC-257, 18.5 µM (inactive); in the assay with SK-MEL-2, 14.6 µM (inactive). For the same molecule, the GI50 in the assay with A549 is 17.6 µM (inactive); with HL-60 it was 10.6 µM (inactive); in the assay on ACHN, 18.3 µM (inactive); with RXF 393 it was 13.9 µM (inactive); in the assay on SW-620, 15.5 µM (inactive); in the assay on EKVX, 17.5 µM (inactive). In addition, the GI50 was 10.3 µM (inactive) with HT-29, 15.7 µM (inactive) with HOP-62, 16.4 µM (inactive) in the assay with SN12C and 15.6 µM (inactive) in the assay with SK-MEL-28.
For the molecule `C[C@@H](CO)OCOCc1ccccc1`, the GI50 with RPMI-8226, in the assay on SK-OV-3, with UACC-257, in the assay with SK-MEL-2, in the assay with A549 and in the assay on HL-60 was > 100 µM (inactive) each time. In addition, the GI50 in the assay on RXF 393, with SW-620, in the assay on HT-29, in the assay on SNB-75, with HOP-62 and in the assay on SN12C was > 100 µM (inactive) in each case. Moreover, the GI50 in the assay on SK-MEL-28 is > 100 µM (inactive).
Turning to `COC(=O)C(=O)C(C(=O)C(=O)Nc1ccc([N+](=O)[O-])cc1)c1nc2ccccc2nc1O` (configuration not stated), the GI50 with OVCAR-8 was > 100 µM (inactive); with RPMI-8226, > 100 µM (inactive); with SK-OV-3, > 100 µM (inactive); in the assay on UACC-257, 55.7 µM (inactive); in the assay with SK-MEL-2, > 100 µM (inactive); with A549, > 100 µM (inactive). Also, the GI50 was > 100 µM (inactive) in the assay with HL-60; 55.2 µM (inactive) in the assay on ACHN; > 100 µM (inactive) in the assay on RXF 393; > 100 µM (inactive) in the assay with SW-620; 81.5 µM (inactive) in the assay on HT-29; > 100 µM (inactive) with SNB-75. Also, the results for the GI50 with HOP-62, with SN12C and with SK-MEL-28 were 39.6 µM (inactive), > 100 µM (inactive) and > 100 µM (inactive), respectively.
Turning to `Cc1ccc(NC(=O)CC(=O)n2nc(-c3ccccc3)c(/N=N/c3ccc(Cl)cc3)c2-c2ccccc2)cc1`, the GI50 was > 100 µM (inactive) in the assay with OVCAR-5; 26 µM (inactive) with OVCAR-8; 23.3 µM (inactive) with RPMI-8226; 27.5 µM (inactive) in the assay on SK-OV-3; 33.8 µM (inactive) in the assay on UACC-257; > 100 µM (inactive) in the assay with SK-MEL-2. The GI50 in the assay with A549 is 28.2 µM (inactive); with HL-60 it was 0.221 µM (active); in the assay on ACHN it was 27.6 µM (inactive); in the assay on SW-620 it was 15.2 µM (inactive); in the assay with EKVX it was > 100 µM (inactive); with HT-29, 17.9 µM (inactive). Besides, the GI50 in the assay with SNB-75 was 22.6 µM (inactive); in the assay with HOP-62, 50.6 µM (inactive); with SN12C, 31.6 µM (inactive); in the assay on SK-MEL-28 it was > 100 µM (inactive).
`CC(=O)N1C(=O)C(=O)c2cc(Cl)ccc21`: the GI50 in the assay on OVCAR-5, in the assay with OVCAR-8, in the assay on RPMI-8226, in the assay with SK-OV-3, with A549 and in the assay with HL-60 was > 100 µM (inactive) throughout. Besides, the GI50 in the assay with ACHN, in the assay on RXF 393, in the assay on SW-620, in the assay on EKVX, in the assay on HT-29 and in the assay with SNB-75 was > 100 µM (inactive) throughout. Moreover, the GI50 in the assay on SN12C and with SK-MEL-28 was > 100 µM (inactive) in each case.
Turning to `Cc1ccc(S(=O)(=O)OC(C=O)C(O)C(O)COC(c2ccccc2)(c2ccccc2)c2ccccc2)cc1` (configuration not stated), the GI50 in the assay on OVCAR-5 was 20.1 µM (inactive); with OVCAR-8, 13.6 µM (inactive); in the assay on RPMI-8226 it was 12.2 µM (inactive); in the assay on SK-OV-3, 15 µM (inactive); with UACC-257, 13.2 µM (inactive); in the assay on SK-MEL-2, 16.2 µM (inactive). Besides, the GI50 in the assay on A549 was 18.2 µM (inactive); with ACHN it was 15.3 µM (inactive); in the assay on RXF 393 it was 15.2 µM (inactive); with SW-620, 16.4 µM (inactive); in the assay on EKVX, 13.9 µM (inactive); in the assay with HT-29 it was 12.2 µM (inactive). Further, the GI50 in the assay on SNB-75 was 14.9 µM (inactive); in the assay on HOP-62 it was 16.9 µM (inactive); in the assay with SN12C, 15.5 µM (inactive); in the assay on SK-MEL-28, 20.6 µM (inactive).
On to `C[Si]12OCCCN(CCO1)CCO2`, for which the GI50 with OVCAR-5, with OVCAR-8, in the assay on RPMI-8226, in the assay with SK-OV-3, in the assay on UACC-257 and with SK-MEL-2 was > 100 µM (inactive) in each case. Also, the GI50 in the assay on A549, in the assay with ACHN, in the assay on RXF 393, in the assay with SW-620, in the assay on EKVX and in the assay with HT-29 was > 100 µM (inactive) throughout. Moreover, the GI50 in the assay with SNB-75, in the assay with SN12C and in the assay with SK-MEL-28 was > 100 µM (inactive) each time.
Turning to `O=C(Nc1cccc(Cl)c1)c1cc2cc(/N=N/c3ccc(Br)cc3)ccc2oc1=O`, the GI50 in the assay with OVCAR-5 is 31 µM (inactive); in the assay on OVCAR-8, 58.7 µM (inactive); in the assay with RPMI-8226 it was 33.2 µM (inactive); in the assay with SK-OV-3, 51.2 µM (inactive); with UACC-257, 33.3 µM (inactive); with SK-MEL-2, 12.9 µM (inactive). Moreover, the GI50 in the assay on A549 was 90.6 µM (inactive); in the assay on ACHN it was 23.7 µM (inactive); with RXF 393, 16.1 µM (inactive); in the assay on SW-620, 29.3 µM (inactive); in the assay on EKVX, 34.3 µM (inactive); in the assay with HT-29 it was 66.7 µM (inactive). Also, the GI50 was 37 µM (inactive) with SNB-75, > 100 µM (inactive) in the assay with HOP-62, 32.1 µM (inactive) in the assay on SN12C and 47.8 µM (inactive) in the assay on SK-MEL-28.
As to `C#C[C@]1(O)CCCC2=CC(=O)CC[C@@]21C`, the GI50 in the assay on OVCAR-5, in the assay with OVCAR-8, in the assay on RPMI-8226, with SK-OV-3, in the assay with UACC-257 and in the assay with SK-MEL-2 was > 100 µM (inactive) each time. Moreover, the GI50 in the assay with A549, with HL-60, in the assay on ACHN, with RXF 393, in the assay on SW-620 and with EKVX was > 100 µM (inactive) each time. For the same molecule, the GI50 with HT-29, in the assay on SN12C and in the assay with SK-MEL-28 was > 100 µM (inactive) in each case.
Regarding `CCOC(=O)/C(=C/c1ccccc1Br)P(=O)(OCC)OCC`, the GI50 was 2.53 µM (inactive) with OVCAR-5; 1.91 µM (inactive) with OVCAR-8; 0.815 µM (active) in the assay on RPMI-8226; 1.84 µM (inactive) in the assay on SK-MEL-2; 2.67 µM (inactive) with A549; 0.226 µM (active) in the assay with HL-60. The GI50 was 2.57 µM (inactive) in the assay with ACHN; 1.17 µM (inactive) with RXF 393; 1.28 µM (inactive) in the assay with SW-620; 2.58 µM (inactive) in the assay on EKVX; 2.82 µM (inactive) in the assay with HT-29; 1.48 µM (inactive) with SNB-75. For the same molecule, the GI50 with HOP-62 was 3.72 µM (inactive); with SN12C, 2.06 µM (inactive); in the assay with SK-MEL-28, 2.03 µM (inactive).
In the case of `COc1nc(OC)nc(Sc2ccc(Sc3ccc(Sc4nc(OC)nc(OC)n4)cc3)cc2)n1`, the GI50 in the assay with OVCAR-5, in the assay on OVCAR-8, in the assay with RPMI-8226, with SK-OV-3, in the assay on UACC-257 and with SK-MEL-2 was > 100 µM (inactive) throughout. In addition, the GI50 in the assay with A549, in the assay on HL-60, in the assay on ACHN, in the assay on RXF 393, in the assay with SW-620 and with EKVX was > 100 µM (inactive) each time. The GI50 with HT-29, in the assay on SNB-75, in the assay on SN12C and in the assay with SK-MEL-28 was > 100 µM (inactive) throughout.

The values are drawn from ChEMBL document CHEMBL1201862, “PubChem BioAssay data set” (2004).
